We go through eight molecules from patent publication US20260027226A1 (Pheon Therapeutics Ltd, priority 2022, published 2026).

“Also recorded” adds a separate entry of the source.

A short description of data set [1]: Buffer without S9 (50 mM Na-acetate, pH 5.0). The following applies: 37° C., up to 24 h.
Data set [2] in a line: Pooled liver S9 fraction, 50 mM Na-acetate, pH 5.0. As to conditions: 37° C., up to 24 h.
The subject of data set [3] is linear double-stranded TyrT fragment. The data set can be described thus: DNA cross-linking assay. It is filed as biochemical. As to conditions: overnight incubation at 37° C., 10 μM to 0.1 nM. The procedure:
After overnight incubation, the samples were mixed with 7 μL loading solution (80% formamide containing 10 mM EDTA, 10 mM NaOH, 0.1% bromophenol blue) and incubated at 65° C. for 5 min. Control 1 (C1) for native double-stranded DNA consisted of 1.5 μL labelled DNA, 1.5 μL 10 mM Tris-HCl, pH 7.5 containing 0.1 mM EDTA and 7 μL 1× loading dye. Control 2 (C2) for denatured native single-stranded DNA was composed of 1.5 μL labelled DNA, 1.5 μL 10 mM Tris-HCl, pH 7.5 containing 0.1 mM EDTA which was incubated at 65° C. for 5 min. Control 3 (C3) for native double-stranded DNA consisted of 1.5 μL labelled DNA, 1.5 μL 10 mM Tris-HCl, pH 7.5 containing 0.1 mM EDTA and 7 μL SSB. Control 4 (C4) for denatured native single-stranded DNA was composed of 1.5 μL labelled DNA, 1.5 μL 10 mM Tris-HCl, pH 7.5 containing 0.1 mM EDTA and 7 μL SSB which was incubated at 65° C. for 5 min. Separation was performed on a 7.5% denaturing polyacrylamide gel (20 cm long, 0.3 mm thick) at 500V for about 4 h until the dye reached the bottom of the gel. The gel plates were then separated, the gels fixed by immersing in 10% (v/v) acetic acid, followed by transfer to Whatmann 3 MM paper and drying under vacuum at 80° C. […]
The ability of 26 to cross-link DNA was evaluated using an assay involving a linear double-stranded TyrT fragment (FIG. 17). […]

The test system of data set [4] is HexA DNA fragment. The data set can be described thus: DNA footprinting. It is filed as binding. The following applies: for DNA-binding site sequence: X any base, W adenine or thymine. The procedure: Footprinting reactions were performed as using previously described methods using the DNA fragments HexA and HexB, which together contain all 64 symmetrical hexanucleotide sequences, and MS1 that contains all possible […] tetranucleotide sequences. The DNA fragments were obtained by cutting the parent plasmids with HindIII and SacI (for HexA and MS1) or EcoRI and PstI (for HexB), and were labelled at the “-end of the HindIII or EcoRI sites with [α-^32P]dATP using reverse transcriptase or exo− Klenow fragment. After gel purification, the radiolabelled DNA was dissolved in 10 mM Tris-HCl pH 7.5 containing 0.1 mM EDTA, at a concentration of about 10 c.p.s per μL as determined on a hand held Geiger counter. 1.5 μL of radiolabelled DNA was mixed with 1.5 μL ligand that had been freshly diluted in 10 mM Tris-HCl pH 7.5, containing 10 mM NaCl. The complexes were left to equilibrate for at least 12 hours before digesting with 2 μL dNase I (final concentration about 0.01 units/mL). The reactions were stopped after 1 minute by adding 4 μL of formamide containing 10 mM EDTA and bromophenol blue (0.1% w/v). The samples were then heated at 100° C. for 3 minutes before loading onto 8% denaturing polyacrylamide gels containing 8 M urea. Gels were fixed in 10% acetic acid, transferred to 3 MM paper, dried and exposed to a phosphor screen overnight, before analysing with a Typhoon phosphorimager
The DNA sequence selectivity profile of the molecules was investigated using a modification of a previously established DNA footprinting assay. Following an overnight incubation of the ligand-DNA complexes, the mixture was mixed with strand separation buffer containing 10 mM EDTA, 10 mM NaOH, 0.1% bromophenol blue, 80% formamide and incubated at 100° C. for 3 min. The mixture was then immediately cooled on ice and run on an 8% denaturing gel. […] The possible adducts formed within the HexA sequences are shown in FIGS. 20 and 21, respectively.

Data set [5] is described as follows: Comparative repeat-dose rat toxicity study. The data set is classed as in vivo. The following applies: DAR 8 on Trastuzumab backbone, 20 or 60 mg/kg; for tolerability: IV once every 3 weeks, two doses.
For data set [6], the system named is Papain. The data set can be described thus: Papain (a Cathepsin B surrogate). The following applies: up to 96 hours.
The conditions of data set [7]: cited from earlier work.
Data set [8] can be described thus: Control incubation in buffer without S9. The data set is classed as in vitro ADME.
Experimental: The control incubations include each ADC without the addition of S9.

In the case of Trastuzumab-Mal-GGFG-Dxd, the fragment found result is recorded as “DXd, minor, 0 min; also recorded: exatecan, minor” in data set [1]; “DXd, minor, 0 min; also recorded: Cys-Mc-GGFG-DXd; also recorded: exatecan, minor” in data set [2] (Cynomolgus monkey); “DXd, 0 min; also recorded: Cys-Mc-GGFG-DXd; also recorded: exatecan, minor” in data set [2] (Human).

Regarding `COc1cc2c(cc1OCCCC(=O)Nc1cc(C(=O)Nc3ccc(-c4cc(C(=O)Nc5ccc(N)cc5)n(C)c4)cc3)n(C)c1)N=C[C@@H]1CCCCN1C2=O` [Formula 26, (S)—N-(4-aminophenyl)-4-(4-(4-(4-((2-methoxy-12-oxo-6a,7,8,9,10,12-hexahydrobenzo[e]pyrido[1,2-a][1,4]diazepin-3-yl)oxy)butanamido)-1-methyl-1H-pyrrol-2-carboxamido)phenyl)-1-methyl-1H-pyrrol-2-carboxamide], the DNA interstrand cross-linking entry in data set [3] is “Cross-links are not detectable at any concentration”. Moreover, the “preferred binding sites in HexA” value in data set [4] (DNase I footprinting) is reported as “only five preferred sites”. In data set [4], the DNA-binding site sequence result is on record as “XGXWWWW”.

`CC[C@@]1(O)C(=O)OCc2c1cc1n(c2=O)Cc2c-1nc1cc(F)c(C)c3c1c2[C@@H](NC(=O)CO)CC3` [Dxd, reference compound]: the tolerability result in data set [5] is recorded as “well tolerated”.

In the case of “1-(3-(2,5-Dioxo-2,5-dihydro-1H-pyrrol-1-yl)propanamido)-N-((2S)-1-(((2S)-1-(((1S,9S)-9-ethyl-5-fluoro-9-hydroxy-4-methyl-10,13-dioxo-2,3,9,10,12,13,13a,14-octahydro-1H-benzo[de]pyrano[″,″:5,6]indeno[1,2-b]quinolin-1-yl)amino)-1-oxopropan-2-yl)amino)-3-methyl-1-oxobutan-2-yl)-3,6,9,12,15,18,21,24-octaoxaheptacosan-27-amide”, in data set [6], the fragment found entry is on record as “Val-Ala-Exatecan” and the not cleaved entry is listed as “the free payload was not liberated”.

Turning to `COc1cc2c(cc1OCCCC(=O)Nc1cc(C(=O)Nc3ccc(N)cc3)n(C)c1)N=C[C@@H]1CCCCN1C2=O` [Formula 19, (S)—N-(4-Aminophenyl)-4-(4-((2-methoxy-12-oxo-6a,7,8,9,10,12-hexahydrobenzo[e]pyrido[1,2-a][1,4]diazepin-3-yl)oxy)butanamido)-1-methyl-1H-pyrrol-2-carboxamide], the DNA interstrand cross-linking entry in data set [3] is “incapable of cross-linking DNA”.

In the case of Adcetris, the “ADC cyno t112” value in data set [7] is 45 to 72 h.

For `C=CCOC(=O)N1c2cc(OCCCC(=O)Nc3cc(C(=O)Nc4ccc(NC(=O)C(F)(F)F)cc4)n(C)c3)c(OC)cc2C(=O)N2CCCC[C@H]2C1OC1CCCCO1` (stereo partly drawn) [Formula 17, Allyl (6aS)-2-methoxy-3-(4-((1-methyl-5-((4-(2,2,2-trifluoroacetamido)phenyl)carbamoyl)-1H-pyrrol-3-yl)amino)-4-oxobutoxy)-12-oxo-6-((tetrahydro-2H-pyran-2-yl)oxy)-6,6a,7,8,9,10-hexahydrobenzo[e]pyrido[1,2-a][1,4]diazepine-5(12H)-carboxylate], the DNA-binding site sequence result in data set [4] is given as “XGXWWWW”.

As for `CC[C@@]1(O)C(=O)OCc2c1cc1n(c2=O)Cc2c-1nc1cc(F)c(C)c3c1c2[C@@H](NC(=O)[C@H](C)NC(=O)[C@@H](NC(=O)CCOCCOCCOCCOCCOCCOCCOCCOCCNC(=O)CCN1C(=O)C=CC1=O)C(C)C)CC3` [Compound 30, 1-(3-(2,5-Dioxo-2,5-dihydro-1H-pyrrol-1-yl)propanamido)-N-((2S)-1-(((2S)-1-(((1S,9S)-9-ethyl-5-fluoro-9-hydroxy-4-methyl-10,13-dioxo-2,3,9,10,12,13,13a,14-octahydro-1H-benzo[de]pyrano[″,″:5,6]indeno[1,2-b]quinolin-1-yl)amino)-1-oxopropan-2-yl)amino)-3-methyl-1-oxobutan-2-yl)-3,6,9,12,15,18,21,24-octaoxaheptacosan-27-amide], the “changes in hemopoietic system / red cell parameters” value in data set [5] is reported as “negligible effects”. Further, the tolerability result in data set [5] was “well tolerated”. Also, the “LC/MS peak area of released payload (exatecan; 4NH2-exatecan; DXd; DM1)” value is reported as 26,179 in data set [8] (Buffer without S9, 180 min); 51,267 in data set [8] (Buffer without S9, 360 min); 59,452 in data set [8] (Buffer without S9, 1440 min).
